{
  "source": "patent US20260098025A1",
  "about": "“DIMERIC COMPOUNDS AS INHIBITORS OF GLYCOGEN SYNTHASE 1 (GYS1) AND METHODS OF USE THEREOF” (Maze Therapeutics, Inc., priority 2022, published 2026)",
  "target": "T1, recombinant hGYS1/GN1 protein (Homo sapiens, UniProt P13807)",
  "T1 sequence (P13807 1-737)": "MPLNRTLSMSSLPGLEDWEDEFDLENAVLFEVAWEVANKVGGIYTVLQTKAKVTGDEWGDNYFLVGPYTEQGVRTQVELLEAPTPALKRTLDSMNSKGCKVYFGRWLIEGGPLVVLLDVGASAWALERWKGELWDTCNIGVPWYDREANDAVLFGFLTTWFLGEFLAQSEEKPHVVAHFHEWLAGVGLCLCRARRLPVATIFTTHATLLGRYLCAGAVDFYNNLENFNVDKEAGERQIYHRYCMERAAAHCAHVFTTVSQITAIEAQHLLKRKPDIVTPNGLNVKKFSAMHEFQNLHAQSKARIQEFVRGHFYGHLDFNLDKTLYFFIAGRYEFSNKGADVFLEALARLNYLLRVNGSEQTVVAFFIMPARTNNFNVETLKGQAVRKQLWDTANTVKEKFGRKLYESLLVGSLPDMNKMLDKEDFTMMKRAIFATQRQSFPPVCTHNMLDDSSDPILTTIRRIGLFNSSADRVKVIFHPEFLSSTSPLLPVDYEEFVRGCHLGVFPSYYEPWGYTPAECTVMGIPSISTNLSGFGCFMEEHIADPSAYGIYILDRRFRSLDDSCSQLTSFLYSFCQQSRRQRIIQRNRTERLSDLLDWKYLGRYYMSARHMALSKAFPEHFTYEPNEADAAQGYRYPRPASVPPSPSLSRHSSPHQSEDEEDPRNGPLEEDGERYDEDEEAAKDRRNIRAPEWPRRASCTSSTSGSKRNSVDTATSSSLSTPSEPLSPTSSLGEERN",
  "T1 sequence (P46976 1-350 partner)": "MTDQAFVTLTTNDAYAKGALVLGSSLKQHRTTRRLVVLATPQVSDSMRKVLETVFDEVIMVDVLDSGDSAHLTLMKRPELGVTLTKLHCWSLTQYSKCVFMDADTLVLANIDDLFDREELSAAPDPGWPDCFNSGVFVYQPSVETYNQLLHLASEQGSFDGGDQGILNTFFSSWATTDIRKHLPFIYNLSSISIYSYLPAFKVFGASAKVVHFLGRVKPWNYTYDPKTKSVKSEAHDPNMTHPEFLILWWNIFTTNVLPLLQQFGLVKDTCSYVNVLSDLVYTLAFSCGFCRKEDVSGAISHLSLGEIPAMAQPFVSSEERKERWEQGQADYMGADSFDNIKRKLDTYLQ",
  "experiment": "GYS1 coupled enzyme assay (PK/LDH, NADH absorbance at 340 nm)",
  "format": "biochemical",
  "conditions": "geometric mean of at least 2 assay runs on separate days; hGYS1/GN1 50 nM, Glucose-6-Phosphate 1 mM, UDP-Glucose 0.8 mM",
  "from_the_text": "The GYS1 coupled enzyme assay is a kinetic biochemical assay that indirectly quantifies the rate of glycogen synthesis by coupling the conversion of GYS1 substrate UDP-glucose into UDP with downstream enzymatic reactions. UDP is released from UDP-glucose as glucose monomers are linked into the growing glycogen strand by GYS1. The coupled assay then proceeds with pyruvate kinase utilizing UDP and phospho(enol)pyruvate (PEP) to form pyruvate. Lactate dehydrogenase then converts pyruvate and NADH into lactate and NAD+. Oxidation of NADH to NAD+ can be measured continuously with a plate reader by quantifying the decrease in NADH absorbance at 340 nm over time.\nCompounds that inhibit the hGYS1 enzyme and, subsequently, the downstream conversion of NADH to NAD+, were tested using assay ready plates (black, clear bottom 384 well plates) in a final DMSO reaction volume of 2.5% DMSO. The Assay Buffer contained 50 mM Tris pH 7.5, 2 mM MgCl2, and 100 mM KCl. Fresh stocks of BSA at a final concentration of 0.02% and TCEP at 1 mM were added before splitting buffer into hGYS1 buffer and substrate buffer. To the hGYS1 buffer, rabbit liver glycogen was added at a final concentration of 0.2% glycogen. Glucose-6-Phosphate was added at 1 mM, recombinant hGYS1/GN1 protein was added at 50 nM to the substrate buffer, phosphoenolpyruvate (PEP) was added at 2 mM, UDP-Glucose was added at 0.8 mM, NADH) was added at 0.6 mM, and Pyruvate Kinase/Lactate Dehydrogenase was added at 20 units/mL. The reaction was initiated by mixing hGYS1 buffer and substrate buffer at a 1:1 ratio. Both buffers were plated using a liquid dispensing device with hGYS1 buffer plated first followed by the substrate buffer. Plates were spun briefly to eliminate air bubbles and are immediately read in continuous mode at an absorbance of 340 nm, for 10 time points in one-minute increments, for a total of 10 minutes. The slope from these 10 time points was normalized to the positive and negative control wells. The duplicate % inhibition values are then averaged and fit to a Hill equation for dose response according to the Levenberg-Marquardt algorithm with the Hill equation maximum set to 100 and the minimum set to 0.\nThe results are shown in Table 2 below, which reports the IC50 of each compound. Unless otherwise specified, IC50 values are reported as the geometric mean of at least 2 assay runs on separate days. Each run represents the average of a technical replicate, where each compound was assayed twice in the same plate. As shown in the table below, the compounds of the present invention are potent inhibitors of human GYS1. A superscript “#” symbol in Table 2 indicates results from a single assay run.\nNote that, in Table 2, the compounds are referred to by the corresponding Compound No. in Table 1, which is also referred to in the synthetic examples.",
  "data": [
    {"smiles": "Cc1cn(CC(=O)N2C[C@H](F)C[C@H]2C(=O)N[C@@H](c2ccccc2)c2ccc(C3CC3)c(F)n2)c(=O)n(CCOCCOCCn2c(=O)c(C)cn(CC(=O)N3C[C@H](F)C[C@H]3C(=O)N[C@@H](c3ccccc3)c3ccc(C4CC4)c(F)n3)c2=O)c1=O", "note": "[Compound 15, (2S,2′S,4R,4′R)-1,1′-(2,2′-(((ethane-1,2-diylbis(oxy))bis(ethane-2,1-diyl))bis(5-methyl-2,4-dioxo-3,4-dihydropyrimidine-3,1(2H)-diyl))bis(acetyl))bis(N-((S)-(5-cyclopropyl-6-fluoropyridin-2-yl)(phenyl)methyl)-4-fluoropyrrolidine-2-carboxamide)]", "values": [
      {"measurement": "IC50", "value": 5.3, "unit": "nM"}
    ]},
    {"smiles": "O=C(N[C@@H](c1ccccc1)c1ccc(C2CC2)c(F)n1)[C@@H]1C[C@@H](F)CN1C(=O)COCCOCCNCCOCCOCCOCC(=O)N1C[C@H](F)C[C@H]1C(=O)N[C@@H](c1ccccc1)c1ccc(C2CC2)c(F)n1", "note": "[Compound 13, (2S,2′S,4R,4′R)-1,1′-(3,6,12,15,18-pentaoxa-9-azaicosanedioyl)bis(N-((S)-(5-cyclopropyl-6-fluoropyridin-2-yl)(phenyl)methyl)-4-fluoropyrrolidine-2-carboxamide)]", "values": [
      {"measurement": "IC50", "value": "> 10000", "unit": "nM"}
    ]},
    {"smiles": "Cc1cn(CC(=O)N2C[C@H](F)C[C@H]2C(=O)N[C@@H](c2ccccc2)c2ccc(C3CC3)c(F)n2)c(=O)n(CCOCCn2c(=O)c(C)cn(CC(=O)N3C[C@H](F)C[C@H]3C(=O)N[C@@H](c3ccccc3)c3ccc(C4CC4)c(F)n3)c2=O)c1=O", "note": "[Compound 14, (2S,2′S,4R,4′R)-1,1′-(2,2′-((oxybis(ethane-2,1-diyl))bis(5-methyl-2,4-dioxo-3,4-dihydropyrimidine-3,1(2H)-diyl))bis(acetyl))bis(N-((S)-(5-cyclopropyl-6-fluoropyridin-2-yl)(phenyl)methyl)-4-fluoropyrrolidine-2-carboxamide)]", "values": [
      {"measurement": "IC50", "value": 4.9, "unit": "nM"}
    ]},
    {"smiles": "O=C(N[C@@H](c1ccccc1)c1ccc(C2CC2)c(F)n1)[C@@H]1C[C@@H](F)CN1C(=O)Cn1cc(COCCOc2cn(CC(=O)N3C[C@H](F)C[C@H]3C(=O)N[C@@H](c3ccccc3)c3ccc(C4CC4)c(F)n3)nn2)nn1", "note": "[Compound 8, (2S,4R)-N-((S)-(5-cyclopropyl-6-fluoropyridin-2-yl)(phenyl)methyl)-1-(2-(4-(2-((1-(2-((2S,4R)-2-(((S)-(5-cyclopropyl-6-fluoropyridin-2-yl)(phenyl)methyl)carbamoyl)-4-fluoropyrrolidin-1-yl)-2-oxoethyl)-1H-1,2,3-triazol-4-yl)methoxy)ethoxy)-1H-1,2,3-triazol-1-yl)acetyl)-4-fluoropyrrolidine-2-carboxamide]", "values": [
      {"measurement": "IC50", "value": 5.2, "unit": "nM"}
    ]}
  ]
}
